Experimental data taken from PubChem BioAssay AID330 (DTP/NCI, 2004).
“And” between values parts separate entries of the source, which are not always exact repeats. Identical values can stand only once. Toxic doses and inconclusive results are not listed. Peptide text beside a SMILES is read from it. * marks the point of attachment. Cbz = O=C(OCc1ccccc1)*

Tested on: P388 leukemia ip, CD2F1 mice, survival T/C
Test: NCI In Vivo Anticancer Drug Screen. Data for tumor model P388 Leukemia (intraperitoneal) in CD2F1 (CDF1) mice
Settings: endpoint: median survival time, higher = longer survival
Procedure, shortened: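 Mice carrying the transplanted tumor received test compound or vehicle. Survival was recorded in each group, and the value is the treated-group measurement divided by that of the vehicle-treated control group.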

[1] = dose: 100.0 mg/kg/injection, schedule: Q01DX001 (ip), vehicle: Klucel (hydroxypropylcellulose) (HPC)
[2] = dose: 200.0 mg/kg/injection, schedule: Q01DX001 (ip), vehicle: Klucel (hydroxypropylcellulose) (HPC)
[3] = dose: 50.0 mg/kg/injection, schedule: Q01DX009 (ip), vehicle: saline with Tween-80
[4] = dose: 100.0 mg/kg/injection, schedule: Q01DX009 (ip), vehicle: saline with Tween-80
[5] = dose: 200.0 mg/kg/injection, schedule: Q01DX009 (ip), vehicle: saline with Tween-80
[6] = dose: 60.0 mg/kg/injection, schedule: Q01DX005 (ip), vehicle: saline with Tween-80
[7] = dose: 120.0 mg/kg/injection, schedule: Q01DX005 (ip), vehicle: saline with Tween-80
[8] = dose: 240.0 mg/kg/injection, schedule: Q01DX005 (ip), vehicle: saline with Tween-80
[9] = dose: 50.0 mg/kg/injection, schedule: Q01DX005 (ip), vehicle: saline with Tween-80
[10] = dose: 100.0 mg/kg/injection, schedule: Q01DX005 (ip), vehicle: saline with Tween-80
[11] = dose: 200.0 mg/kg/injection, schedule: Q01DX005 (ip), vehicle: saline with Tween-80
[12] = dose: 50.0 mg/kg/injection, schedule: Q01DX005 (ip), vehicle: Klucel (hydroxypropylcellulose) (HPC)
[13] = dose: 100.0 mg/kg/injection, schedule: Q01DX005 (ip), vehicle: Klucel (hydroxypropylcellulose) (HPC)
[14] = dose: 200.0 mg/kg/injection, schedule: Q01DX005 (ip), vehicle: Klucel (hydroxypropylcellulose) (HPC)
[15] = dose: 100.0 mg/kg/injection, schedule: Q04DX003 (ip), vehicle: saline
[16] = dose: 200.0 mg/kg/injection, schedule: Q04DX003 (ip), vehicle: saline

For O=C1OCCOCCOCCOCCOC(=O)c2cncc1c2, the T/C [1] was 101 % of control, the T/C [2] was 108 % of control and the T/C (dose: 400.0 mg/kg/injection, schedule: Q01DX001 (ip), vehicle: Klucel (hydroxypropylcellulose) (HPC)) was 105 % of control.

For C1SSCSSS1, the T/C [3] was 115 % of control, the T/C [4] was 117 % of control and the T/C [5] was 111 % of control.

For CCOC(=O)CCCc1ccc(N=NN(C)C)cc1, the T/C (dose: 66.0 mg/kg/injection, schedule: Q04DX003 (ip), vehicle: saline with Tween-80) was 118 % of control and the T/C (dose: 100.0 mg/kg/injection, schedule: Q04DX003 (ip), vehicle: saline with Tween-80) was 159 % of control.

Cc1cc(=O)[nH]c2cc(NN)ccc12 was tested, and the T/C [6] was 96 % of control, the T/C [7] was 92 % of control and the T/C [8] was 95 % of control.

CCC(CC)(C(=O)Nc1ccc2[nH]c3ccccc3c(=O)c2c1)C(=O)Nc1ccc2[nH]c3ccccc3c(=O)c2c1 was tested, and the T/C [9] was 97 % of control, the T/C [10] was 105 % of control and the T/C [11] was 99 % of control.

With CC(C)c1ccc(C(CC(=O)c2ccccc2)C(C(=O)O)c2ccccc2)cc1 (configuration not stated) the T/C (dose: 50.0 mg/kg/injection, schedule: Q01DX009 (ip), vehicle: Klucel (hydroxypropylcellulose) (HPC)) was 97 % of control, the T/C (dose: 100.0 mg/kg/injection, schedule: Q01DX009 (ip), vehicle: Klucel (hydroxypropylcellulose) (HPC)) was 89 % of control and the T/C (dose: 200.0 mg/kg/injection, schedule: Q01DX009 (ip), vehicle: Klucel (hydroxypropylcellulose) (HPC)) was 89 % of control.

With CCC[n+]1noc(N)n1 the T/C (dose: 3.13 mg/kg/injection, schedule: Q01DX009 (ip), vehicle: water) was 97 % of control, the T/C (dose: 6.25 mg/kg/injection, schedule: Q01DX009 (ip), vehicle: water) was 99 % of control and the T/C (dose: 12.5 mg/kg/injection, schedule: Q01DX009 (ip), vehicle: water) was 90 % of control. For the same molecule, the T/C (dose: 25.0 mg/kg/injection, schedule: Q01DX009 (ip), vehicle: water) was 97 % of control, the T/C (dose: 50.0 mg/kg/injection, schedule: Q01DX009 (ip), vehicle: water) was 106 % of control and the T/C (dose: 100.0 mg/kg/injection, schedule: Q01DX009 (ip), vehicle: water) was 106 % of control.

In the case of CCOP(O)(=S)OCC.[Y], the T/C (dose: 50.0 mg/kg/injection, schedule: Q01DX001 (ip), vehicle: Klucel (hydroxypropylcellulose) (HPC)) is reported as 90 % of control, the T/C [1] is reported as 87 % of control and the T/C [2] is reported as 95 % of control.

In the case of N#Cc1c(O)c(-c2ccccc2)c(=O)n2c1[nH]c1ccccc12, the T/C [12] is reported as 101 % of control, the T/C [13] is reported as 104 % of control and the T/C [14] is reported as 113 % of control.

In the case of Cn1c(-c2ccc3c(c2)OCO3)cc(=O)c2ccccc21, the T/C (dose: 30.0 mg/kg/injection, schedule: Q01DX005 (ip), vehicle: saline with Tween-80) is reported as 97 % of control, the T/C [6] is reported as 92 % of control and the T/C [7] is reported as 92 % of control.

In the case of CC(C)CC(NC(=O)C(Cc1ccccc1)NC(=O)OCc1ccccc1)C(=O)NC(C)C(=O)O (stereo not drawn) (Cbz-Phe-Leu-Ala-OH; configuration not given here), the T/C [9] is reported as 95 % of control, the T/C [10] is reported as 97 % of control and the T/C [11] is reported as 104 % of control.

With CC(C)CC(NC(=O)CCNC(=O)OCc1ccccc1)C(=O)O (configuration not stated) the T/C [12] was 100 % of control, the T/C [13] was 101 % of control and the T/C [14] was 91 % of control.

For Cc1c(N=Nc2cccc(F)c2)c(-c2ccccc2)nn1C(N)=S, the T/C (dose: 12.5 mg/kg/injection, schedule: Q01DX005 (ip), vehicle: saline with Tween-80) was 95 % of control, the T/C (dose: 25.0 mg/kg/injection, schedule: Q01DX005 (ip), vehicle: saline with Tween-80) was 95 % of control and the T/C [9] was 101 % of control.

With COC12C=CC(=O)N1CCC2 (configuration not stated) the T/C (dose: 7.5 mg/kg/injection, schedule: Q01DX005 (ip), vehicle: DMSO) was 90 % of control, the T/C (dose: 15.0 mg/kg/injection, schedule: Q01DX005 (ip), vehicle: DMSO) was 101 % of control and the T/C (dose: 30.0 mg/kg/injection, schedule: Q01DX005 (ip), vehicle: DMSO) was 101 % of control.

For Cc1c2cc3c(cc2cc2c4cc5c(cc4cc[n+]12)OCO5)OCO3 (tested in a mixture with another compound), the T/C (dose: 0.44 mg/kg/injection, schedule: Q04DX003 (ip), vehicle: saline) was 122 % of control, the T/C (dose: 5.0 mg/kg/injection, schedule: Q04DX003 (ip), vehicle: saline) was 154 % of control and the T/C (dose: 7.5 mg/kg/injection, schedule: Q04DX003 (ip), vehicle: saline) was 150 % of control.

For CCOC(=O)C[CH2][Sn]([Cl])([Cl])[Cl], the T/C [15] was 100 % of control and the T/C [16] was 103 % of control.

In the case of CCCOc1cc2c(cc1C(C)(C)c1ccccc1)OCO2, the T/C [9] is reported as 95 % of control and the T/C [10] is reported as 100 % of control.

With O=C1C=CC(=O)N1Cc1ccco1 the T/C [15] was 90 % of control, the T/C [16] was 95 % of control and the T/C (dose: 400.0 mg/kg/injection, schedule: Q04DX003 (ip), vehicle: saline) was 95 % of control.

CC(=O)OC(C)/C=C\C#N (configuration not stated) was tested, and the T/C (dose: 15.0 mg/kg/injection, schedule: Q01DX005 (ip), vehicle: saline) was 98 % of control and 104 % of control and 86 % of control and the T/C (dose: 30.0 mg/kg/injection, schedule: Q01DX005 (ip), vehicle: saline) was 98 % of control and 100 % of control and 96 % of control.

In the case of CCCCCCCCCCCCS(=O)(=O)CC(Br)C(=O)c1ccco1 (configuration not stated), the T/C (dose: 100.0 mg/kg/injection, schedule: Q04DX002 (ip), vehicle: saline) is reported as 100 % of control, the T/C (dose: 200.0 mg/kg/injection, schedule: Q04DX002 (ip), vehicle: saline) is reported as 100 % of control and the T/C (dose: 400.0 mg/kg/injection, schedule: Q04DX002 (ip), vehicle: saline) is reported as 100 % of control.

In the case of CSc1ncnc2c1c1c(N)ncnc1n2C1OC(CO)C(O)C1O (configuration not stated), the T/C (dose: 25.0 mg/kg/injection, schedule: Q01DX005 (ip), vehicle: other) is reported as 97 % of control, the T/C (dose: 50.0 mg/kg/injection, schedule: Q01DX005 (ip), vehicle: other) is reported as 97 % of control and the T/C (dose: 100.0 mg/kg/injection, schedule: Q01DX005 (ip), vehicle: other) is reported as 109 % of control. The T/C (dose: 200.0 mg/kg/injection, schedule: Q01DX005 (ip), vehicle: other) was 105 % of control.

With CC1(C)COC(CCCCCO)=N1 the T/C [3] was 103 % of control, the T/C [4] was 97 % of control and the T/C [5] was 92 % of control.

In the case of COC(=O)C(Cc1cn(C(O)(NC(=O)OCc2ccccc2)C(F)(F)F)cn1)NC(=O)C(NC(=O)C(CC(C)C)NC(=O)C(CSC(c1ccccc1)(c1ccccc1)c1ccccc1)NC(=O)OCc1ccccc1)C(C)C (configuration not stated), the T/C (dose: 60.0 mg/kg/injection, schedule: Q01DX005 (ip), vehicle: Klucel (hydroxypropylcellulose) (HPC)) is reported as 91 % of control, the T/C (dose: 120.0 mg/kg/injection, schedule: Q01DX005 (ip), vehicle: Klucel (hydroxypropylcellulose) (HPC)) is reported as 110 % of control and the T/C (dose: 240.0 mg/kg/injection, schedule: Q01DX005 (ip), vehicle: Klucel (hydroxypropylcellulose) (HPC)) is reported as 96 % of control.

In the case of C[C@H]1/C(=C/C(=O)OCCN(C)C)CC[C@H]2[C@H]1C(=O)C[C@H]1C(C)(C)[C@@H](O)CC[C@]21C, the T/C (dose: 3.12 mg/kg/injection, schedule: Q01DX009 (ip), vehicle: saline) is reported as 101 % of control, the T/C (dose: 6.25 mg/kg/injection, schedule: Q01DX009 (ip), vehicle: saline) is reported as 96 % of control and the T/C (dose: 12.5 mg/kg/injection, schedule: Q01DX009 (ip), vehicle: saline) is reported as 100 % of control. For the same molecule, the T/C (dose: 25.0 mg/kg/injection, schedule: Q01DX009 (ip), vehicle: saline) was 100 % of control.

With COc1ccc(C2CC3CCC(C2O)N3C)cc1 (configuration not stated) the T/C [12] was 103 % of control and the T/C [13] was 96 % of control.

With CCOC(=O)NC(CC(C)C)C(=O)NC(CC(C)C)C(=O)OC(C)(C)C (configuration not stated) the T/C [9] was 98 % of control, the T/C [10] was 99 % of control and the T/C [11] was 100 % of control.

With N=C1C=C(N)CS1 the T/C (dose: 50.0 mg/kg/injection, schedule: Q01DX009 (ip), vehicle: saline) was 87 % of control, the T/C (dose: 100.0 mg/kg/injection, schedule: Q01DX009 (ip), vehicle: saline) was 86 % of control and the T/C (dose: 200.0 mg/kg/injection, schedule: Q01DX009 (ip), vehicle: saline) was 88 % of control.

COC(=O)C(CP(C)(C)=O)C(N=C(C)C(F)(F)F)(c1ccccc1)c1ccccc1 (configuration not stated) was tested, and the T/C [12] was 100 % of control, the T/C [13] was 100 % of control and the T/C [14] was 107 % of control.

With Cc1nc(N)[nH]c(=O)c1CCCNC(=O)c1cccc([N+](=O)[O-])c1 the T/C [6] was 94 % of control, the T/C [7] was 100 % of control and the T/C [8] was 103 % of control.
